Values after ≈ are worked out from the molar mass of the structure shown. Read-outs that look alike come from different tables or passages of the source.
Key:
[1] = molecular target: T1, Escherichia coli LpxC enzyme (Escherichia coli, UniProt P0A725); test: Inhibitory activity on Escherichia coli LpxC enzyme (LCMS method); type: biochemical
T1 construct: made in house; host or cells: Escherichia coli
T1 sequence (P0A725 1-305): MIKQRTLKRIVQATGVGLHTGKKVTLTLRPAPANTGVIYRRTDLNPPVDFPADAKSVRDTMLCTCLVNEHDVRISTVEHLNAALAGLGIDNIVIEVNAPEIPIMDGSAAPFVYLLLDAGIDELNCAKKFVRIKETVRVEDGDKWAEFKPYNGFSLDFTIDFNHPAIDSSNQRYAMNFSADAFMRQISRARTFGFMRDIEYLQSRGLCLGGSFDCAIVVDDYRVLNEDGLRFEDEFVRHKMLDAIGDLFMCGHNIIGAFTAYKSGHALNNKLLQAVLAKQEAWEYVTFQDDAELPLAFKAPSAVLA
Description: Test Example 3 Evaluation of the Inhibitory Activity on Escherichia coli LpxC Enzyme (LCMS Method)
To assay the activity of Escherichia coli LpxC enzyme, LpxC was reacted with its substrate, UDP-3-O-(R-3-hydroxymyristoyl)-N-acetylglucosamine, and the amount of the reaction product was quantified by liquid chromatography tandem mass spectrometry.
Specifically, to 3.1 nmol/L Escherichia coli LpxC enzyme (as acquired by preparing chromosomal DNA from Escherichia coli, obtaining the Escherichia coli LpxC genes by PCR (polymerase chain reaction) using LpxC specific primer, and incorporating the genes into a vector, followed by expression using Escherichia coli), 20 μmol/L UDP-3-O-(R-3-hydroxymyristoyl)-N-acetylglucosamine (Alberta) was added, and the mixture was incubated at room temperature for 120 minutes. This reaction was performed in a 40 mmol/L-2-morpholinoethanesulfonic acid buffer solution (pH 6.5) containing 0.02% Brij 35, 25 nmol/L-zinc chloride, and 80 μmol/L-dithiothreitol. The reaction was terminated by the addition of acetonitrile containing 25 μmol/L-UDP-N-acetylglucosamine as an internal standard to the reaction mixture. Centrifugation was performed and the amount of the substrate and the reaction product in the supernatant was detected by liquid chromatography tandem mass spectrometry. An inhibition curve was obtained by performing the aforementioned reaction in the presence of various concentrations of test compounds. From this inhibition curve, the concentration of test compound at which the amount of the reaction product was suppressed by 50% (IC50 value) was determined, which was used as an index for the inhibitory activity on Escherichia coli LpxC enzyme.

[2] = molecular target: T2, Pseudomonas aeruginosa LpxC enzyme (Pseudomonas aeruginosa, UniProt P47205); test: Inhibitory activity on Pseudomonas aeruginosa LpxC enzyme (fluorescamine method); type: biochemical; details: fluorescamine detection; 3.6 nmol/L enzyme, 20 μmol/L substrate, pH 8.0, 60 min
T2 construct: made in house; host or cells: Escherichia coli
T2 sequence (P47205 1-303): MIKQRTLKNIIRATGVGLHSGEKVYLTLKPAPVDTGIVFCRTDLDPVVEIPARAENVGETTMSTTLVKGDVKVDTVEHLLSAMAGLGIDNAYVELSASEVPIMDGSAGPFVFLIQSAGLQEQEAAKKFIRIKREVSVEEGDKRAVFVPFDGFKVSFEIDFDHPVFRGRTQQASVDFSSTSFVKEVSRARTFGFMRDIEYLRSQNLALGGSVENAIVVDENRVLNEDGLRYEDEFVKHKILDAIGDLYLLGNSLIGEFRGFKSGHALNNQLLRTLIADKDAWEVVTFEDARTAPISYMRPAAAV
Description: Test Example 1 Evaluation of the Inhibitory Activity on Pseudomonas aeruginosa LpxC Enzyme (Fluoresamine Method)
To assay the activity of Pseudomonas aeruginosa LpxC enzyme, LpxC was reacted with its substrate, UDP-3-O-(R-3-hydroxydecanoyl)-N-acetylglucosamine, and the amount of the reaction product was quantified by the amino groups present in the product.
Specifically, to 3.6 nmol/L Pseudomonas aeruginosa LpxC enzyme (as acquired by preparing chromosomal DNA from Pseudomonas aeruginosa, obtaining the Pseudomonas aeruginosa LpxC genes by PCR (polymerase chain reaction) using LpxC specific primer, and incorporating the genes into a vector, followed by expression using Escherichia coli), 20 μmol/L UDP-3-O-(R-3-hydroxydecanoyl)-N-acetylglucosamine (Carbosynth) was added, and the mixture was incubated at room temperature for 60 minutes. This reaction was performed in a 40 mmol/L-HEPES buffer solution (pH 8.0) containing 0.02% Brij 35 and 25 nmol/L-zinc chloride. The reaction was terminated by the addition of 1.0 mg/mL-fluorescamine dissolved in a solvent obtained by mixing an equal amount of acetonitrile and dimethylformamide with the reaction mixture, and then, a 0.2 mol/L-sodium phosphate buffer solution (pH 8.0) was added thereto, and the amount of the reaction product was detected at an excitation wavelength/fluorescence wavelength=390 nm/495 nm. An inhibition curve was obtained by performing the aforementioned reaction in the presence of various concentrations of test compounds. From this inhibition curve, the concentration of test compound at which the amount of the reaction product was suppressed by 50% (IC50 value) was determined, which was used as an index for the inhibitory activity on Pseudomonas aeruginosa LpxC enzyme.

[3] = tested on: Klebsiella pneumoniae strain ATCC13883; test: Antimicrobial activity, MIC by broth microdilution; type: cell-based; details: ATCC13883, cation-adjusted Mueller-Hinton broth, about 5×10^5 CFU/mL, 35° C., about 18 hours, read-out: MIC Klebsiella pneumoniae ATCC13883
Outline: (§1)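 CLSI-based broth microdilution in cation-adjusted Mueller-Hinton broth, inoculum about 5×10^5 CFU/mL from overnight heart infusion agar culture. Incubation 35° C. about 18 h; MIC is the lowest concentration with no visible growth.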

[4] = tested on: Pseudomonas aeruginosa strain ATCC27853; test: Antimicrobial activity, MIC by broth microdilution; type: cell-based; details: ATCC27853, 18 h, cation-adjusted Mueller-Hinton broth, about 5×10^5 CFU/mL, 35° C., about 18 hours, read-out: MIC Pseudomonas aeruginosa ATCC27853
Outline: as §1

[5] = tested on: Escherichia coli strain ATCC25922; test: Antimicrobial activity, MIC by broth microdilution; type: cell-based; details: ATCC25922, 18 h, cation-adjusted Mueller-Hinton broth, about 5×10^5 CFU/mL, 35° C., about 18 hours, read-out: MIC Escherichia coli ATCC25922
Outline: as §1

[6] = LC-MS/MS detection, 3.1 nmol/L enzyme, 20 μmol/L substrate, pH 6.5, 120 min, read-out: IC50 (inhibitory activity on Escherichia coli LpxC enzyme, LCMS method)

SMILES | IC50 [1, 6] [nM] | IC50 [2] [nM] | MIC [3] [µg/mL] | MIC [4] [µg/mL] | MIC [5] [µg/mL] | IC50 [1] [nM]
C[C@H](O)c1nccn1Cc1cc(-c2ccc(C#CC3CC3CN)cc2)on1 (stereo in doubt) [Compound 8, (1S)-1-(1-{[5-(4-{[trans-2-(aminomethyl)cyclopropyl]ethynyl}phenyl)-1,2-oxazol-3-yl]methyl}-1H-imidazol-2-yl)ethan-1-ol] | 67.8 | 30.5 | 64 (≈ 177 µM) | 16 (≈ 44.1 µM) |  | 
C[C@H](O)c1nccn1Cc1cc(-c2ccc(C#CC34CC(N)(C3)C4)cc2)on1 [Compound 17, (1S)-1-{1-[(5-(4-[(3-aminobicyclo[1.1.1]pentan-1-yl)ethynyl]phenyl}-1,2-oxazol-3-yl)methyl]-1H-imidazol-2-yl}ethan-1-ol] | 49.1 | 13.8 | 0.5 (≈ 1.34 µM) | 16 (≈ 42.7 µM) | 0.5 (≈ 1.34 µM) | 
C[C@H](O)c1nccn1[C@H](CN)c1cc(-c2ccc(C#CCCCO)cc2)on1 [Compound 18, 5-(4-{3-[(1R)-2-Amino-1-{2-[(1S)-1-hydroxyethyl]-1H-imidazol-1-yl}ethyl]-1,2-oxazol-5-yl}phenyl)pent-4-yn-1-ol] |  | 6.04 | 8 (≈ 21 µM) | 16 (≈ 42.1 µM) |  | 69.7
C[C@H](O)c1nccn1[C@H](CN)c1cc(-c2ccc(C#C[C@H]3C[C@H](O)C3)cc2)on1 [Compound 70, trans-3-[(4-{3-[(1R)-2-Amino-1-{2-[(1S)-1-hydroxyethyl]-1H-imidazol-1-yl}ethyl]-1,2-oxazol-5-yl}phenyl)ethynyl]cyclobutan-1-ol] | < 37 |  | 1 (≈ 2.55 µM) | 4 (≈ 10.2 µM) | 0.25 (≈ 0.637 µM) | 
